Values joined by “and” are separate entries in the source; they are usually repeats but may differ in a detail not shown here. Equal values may be shown once. Read-outs that look alike come from different tables or passages of the source.
Columns and labels:
P. falciparum Dd2-2D4 = experiment: P. falciparum asexual blood stage (ABS) growth assay, SYBR Green, 72 h, wild-type parasites; assay type: cell-based, Plasmodium falciparum; details: Plasmodium falciparum, DD2; SI Fig 16b; values on -log scale; read-out: ABS - Dd2-2D4 (converted)
PfcProRS = molecular target: T1, PfcProRS (Plasmodium falciparum, UniProt Q8I5R7); assay type: binding; details: single replicates
T1 construct: made in house; host or cells: E. coli SoluBL-21
T1 sequence (Q8I5R7 249-746): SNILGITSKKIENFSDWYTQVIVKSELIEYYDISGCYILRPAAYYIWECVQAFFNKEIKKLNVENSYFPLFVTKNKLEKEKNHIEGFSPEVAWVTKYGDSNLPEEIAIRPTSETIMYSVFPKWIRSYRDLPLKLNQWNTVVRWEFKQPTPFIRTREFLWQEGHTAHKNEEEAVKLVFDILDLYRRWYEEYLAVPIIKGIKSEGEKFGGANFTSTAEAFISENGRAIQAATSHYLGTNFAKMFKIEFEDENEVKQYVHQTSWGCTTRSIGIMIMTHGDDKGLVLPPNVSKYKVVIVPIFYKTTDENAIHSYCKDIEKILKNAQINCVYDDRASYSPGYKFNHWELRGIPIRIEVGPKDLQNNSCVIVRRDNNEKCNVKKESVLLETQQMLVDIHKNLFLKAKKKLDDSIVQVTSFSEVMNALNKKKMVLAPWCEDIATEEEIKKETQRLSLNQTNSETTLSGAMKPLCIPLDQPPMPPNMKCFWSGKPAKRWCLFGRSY

HsProRS = HsProRS (Homo sapiens, UniProt P07814); experiment: TR-FRET ligand displacement assay with tracer MAT379 (CoraFluor-1-Halo and anti-His6 antibody formats); assay type: binding; set-up: made in house; host or cells: E. coli SoluBL-21; details: for TR-FRET dose-response, normalized signal (SI Fig 11): individual replicates
Sequence of HsProRS (P07814 996-1512): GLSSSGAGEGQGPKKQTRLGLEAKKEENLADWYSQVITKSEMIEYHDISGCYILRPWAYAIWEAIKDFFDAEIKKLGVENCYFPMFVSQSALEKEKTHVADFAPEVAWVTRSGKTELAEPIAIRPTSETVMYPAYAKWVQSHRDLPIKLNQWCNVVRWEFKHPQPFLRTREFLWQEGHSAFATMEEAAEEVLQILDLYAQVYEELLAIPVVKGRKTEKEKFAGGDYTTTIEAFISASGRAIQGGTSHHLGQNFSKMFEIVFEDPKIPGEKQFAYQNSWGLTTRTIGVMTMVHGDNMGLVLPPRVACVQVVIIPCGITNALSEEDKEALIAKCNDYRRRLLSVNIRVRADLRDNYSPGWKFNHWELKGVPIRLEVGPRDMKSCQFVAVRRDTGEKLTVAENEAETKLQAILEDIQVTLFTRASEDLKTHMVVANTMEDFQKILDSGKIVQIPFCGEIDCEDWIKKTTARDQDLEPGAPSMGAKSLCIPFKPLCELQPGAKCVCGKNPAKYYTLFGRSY

CC(C)(C)OC(=O)NC1(C(=O)Nc2nccnc2C(=O)NC2Cc3ccccc3C2)CCCCC1 [compound 16]
EC50 (P. falciparum Dd2-2D4): 6.11 µM
dose-response signal (normalized), SI Fig 8 (PfcProRS; Log[inhibitor] (M) -5.000): 6.20E-01 and 5.27E-01 and 6.63E-01
dose-response signal (normalized), SI Fig 8 (PfcProRS; Log[inhibitor] (M) -5.301): 7.82E-01 and 8.01E-01 and 7.78E-01
dose-response signal (normalized), SI Fig 8 (PfcProRS; Log[inhibitor] (M) -5.601): 9.11E-01 and 9.60E-01 and 1.00E+00
dose-response signal (normalized), SI Fig 8 (PfcProRS; Log[inhibitor] (M) -5.904): 1.10E+00 and 9.14E-01 and 1.01E+00
dose-response signal (normalized), SI Fig 8 (PfcProRS; Log[inhibitor] (M) -6.208): 9.01E-01 and 9.36E-01 and 9.23E-01
dose-response signal (normalized), SI Fig 8 (PfcProRS; Log[inhibitor] (M) -6.509): 1.06E+00 and 9.75E-01 and 1.11E+00
dose-response signal (normalized), SI Fig 8 (PfcProRS; Log[inhibitor] (M) -6.796): 9.95E-01 (2×) and 1.12E+00
dose-response signal (normalized), SI Fig 8 (PfcProRS; Log[inhibitor] (M) -7.108): 9.41E-01 and 8.82E-01 and 1.04E+00
dose-response signal (normalized), SI Fig 8 (PfcProRS; Log[inhibitor] (M) -7.409): 1.04E+00 and 1.02E+00 and 9.01E-01
dose-response signal (normalized), SI Fig 8 (PfcProRS; Log[inhibitor] (M) -7.710): 9.65E-01 and 9.90E-01 and 1.00E+00
dose-response signal (normalized), SI Fig 8 (PfcProRS; Log[inhibitor] (M) -8.000): 9.92E-01 and 8.87E-01 and 9.29E-01
dose-response signal (normalized), SI Fig 8 (PfcProRS; Log[inhibitor] (M) -8.301): 9.41E-01 and 9.84E-01 and 9.99E-01
dose-response signal (normalized), SI Fig 8 (PfcProRS; Log[inhibitor] (M) -8.602): 9.39E-01 and 9.44E-01 and 1.00E+00
dose-response signal (normalized), SI Fig 8 (PfcProRS; Log[inhibitor] (M) -9.000): 9.16E-01 and 9.94E-01 and 9.86E-01
dose-response signal (normalized), SI Fig 8 (PfcProRS; Log[inhibitor] (M) -9.301): 9.11E-01 and 9.01E-01 and 9.58E-01
IC50 (HsProRS): > 10 µM
HsProRS % signal at 10 μM, + 100 μM proline (HsProRS; + 100 μM proline, 10 μM): 70.7%
normalized TR-FRET ligand displacement signal, dose-response replicates (SI Fig 6) (HsProRS; Log[inhibitor] (M) -5.000): 4.34E-01 and 4.81E-01 and 6.11E-01
TR-FRET dose-response, normalized signal (SI Fig 11) (HsProRS; Log[inhibitor] (M) -5.000): 8.52E-01 and 8.40E-01 and 8.43E-01
normalized TR-FRET ligand displacement signal, dose-response replicates (SI Fig 6) (HsProRS; Log[inhibitor] (M) -5.301): 6.93E-01 and 7.38E-01 and 8.04E-01
TR-FRET dose-response, normalized signal (SI Fig 11) (HsProRS; Log[inhibitor] (M) -5.301): 9.27E-01 and 9.08E-01 and 9.74E-01
normalized TR-FRET ligand displacement signal, dose-response replicates (SI Fig 6) (HsProRS; Log[inhibitor] (M) -5.601): 9.79E-01 and 9.61E-01 and 8.02E-01
TR-FRET dose-response, normalized signal (SI Fig 11) (HsProRS; Log[inhibitor] (M) -5.601): 9.47E-01 and 9.15E-01 and 9.10E-01
normalized TR-FRET ligand displacement signal, dose-response replicates (SI Fig 6) (HsProRS; Log[inhibitor] (M) -5.904): 1.00E+00 and 9.00E-01 and 9.53E-01
TR-FRET dose-response, normalized signal (SI Fig 11) (HsProRS; Log[inhibitor] (M) -5.904): 9.81E-01 and 1.01E+00 and 9.64E-01
normalized TR-FRET ligand displacement signal, dose-response replicates (SI Fig 6) (HsProRS; Log[inhibitor] (M) -6.208): 1.01E+00 and 9.68E-01 and 8.67E-01
TR-FRET dose-response, normalized signal (SI Fig 11) (HsProRS; Log[inhibitor] (M) -6.208): 9.74E-01 and 9.73E-01 and 9.58E-01
normalized TR-FRET ligand displacement signal, dose-response replicates (SI Fig 6) (HsProRS; Log[inhibitor] (M) -6.509): 8.93E-01 and 9.31E-01 and 9.89E-01
TR-FRET dose-response, normalized signal (SI Fig 11) (HsProRS; Log[inhibitor] (M) -6.509): 9.98E-01 and 9.53E-01 and 9.97E-01
normalized TR-FRET ligand displacement signal, dose-response replicates (SI Fig 6) (HsProRS; Log[inhibitor] (M) -6.796): 9.58E-01 and 1.05E+00 and 1.01E+00
TR-FRET dose-response, normalized signal (SI Fig 11) (HsProRS; Log[inhibitor] (M) -6.796): 9.61E-01 and 9.66E-01 and 9.67E-01
normalized TR-FRET ligand displacement signal, dose-response replicates (SI Fig 6) (HsProRS; Log[inhibitor] (M) -7.108): 9.61E-01 and 9.43E-01 and 9.87E-01
TR-FRET dose-response, normalized signal (SI Fig 11) (HsProRS; Log[inhibitor] (M) -7.108): 9.51E-01 and 9.57E-01 and 9.59E-01
normalized TR-FRET ligand displacement signal, dose-response replicates (SI Fig 6) (HsProRS; Log[inhibitor] (M) -7.409): 1.08E+00 and 1.02E+00 (2×)
TR-FRET dose-response, normalized signal (SI Fig 11) (HsProRS; Log[inhibitor] (M) -7.409): 9.88E-01 and 8.98E-01 and 1.00E+00
normalized TR-FRET ligand displacement signal, dose-response replicates (SI Fig 6) (HsProRS; Log[inhibitor] (M) -7.710): 9.30E-01 and 9.73E-01 and 8.91E-01
TR-FRET dose-response, normalized signal (SI Fig 11) (HsProRS; Log[inhibitor] (M) -7.710): 9.77E-01 and 9.48E-01 and 9.54E-01
normalized TR-FRET ligand displacement signal, dose-response replicates (SI Fig 6) (HsProRS; Log[inhibitor] (M) -8.000): 9.09E-01 and 9.96E-01 and 8.17E-01
TR-FRET dose-response, normalized signal (SI Fig 11) (HsProRS; Log[inhibitor] (M) -8.000): 9.83E-01 and 9.29E-01 and 9.65E-01
normalized TR-FRET ligand displacement signal, dose-response replicates (SI Fig 6) (HsProRS; Log[inhibitor] (M) -8.301): 9.56E-01 and 8.69E-01 and 9.45E-01
TR-FRET dose-response, normalized signal (SI Fig 11) (HsProRS; Log[inhibitor] (M) -8.301): 1.00E+00 and 1.01E+00 and 9.30E-01
normalized TR-FRET ligand displacement signal, dose-response replicates (SI Fig 6) (HsProRS; Log[inhibitor] (M) -8.602): 9.44E-01 and 9.32E-01 and 1.00E+00
TR-FRET dose-response, normalized signal (SI Fig 11) (HsProRS; Log[inhibitor] (M) -8.602): 9.93E-01 and 9.41E-01 and 1.01E+00
normalized TR-FRET ligand displacement signal, dose-response replicates (SI Fig 6) (HsProRS; Log[inhibitor] (M) -9.000): 8.94E-01 and 8.85E-01 and 9.67E-01
TR-FRET dose-response, normalized signal (SI Fig 11) (HsProRS; Log[inhibitor] (M) -9.000): 9.74E-01 and 9.63E-01 and 9.89E-01
normalized TR-FRET ligand displacement signal, dose-response replicates (SI Fig 6) (HsProRS; Log[inhibitor] (M) -9.301): 1.12E+00 and 1.00E+00 and 9.62E-01
TR-FRET dose-response, normalized signal (SI Fig 11) (HsProRS; Log[inhibitor] (M) -9.301): 9.82E-01 and 9.33E-01 and 9.53E-01
HsProRS % signal at 10 μM (HsProRS; no added proline/ATP (-), 10 μM): 84.5%
IC50 (HsProRS; read-out: HsProRS IC50 + 100 μM proline, + 100 μM proline): > 10 µM
